Data reported in patent US8486965B2, “Pyrrolo[2,3-b]pyridine derivative and use thereof for treatment of cancer” (Takeda Pharmaceutical Company Limited, priority 2009, dated 2013).

These compounds were tested on mouse medulloblastoma (assay: In vivo anti-tumor test, mouse medulloblastoma allogeneic transplantation model). Settings: 1 mg/kg, orally once a day for 2 weeks; subcutaneous medulloblastoma in nude mouse; at the end of the test; p < 0.025 (Dunnett's test).
Procedure: According to the description in Sasaki, K. et al., (2006) Cancer Res. 66: 4215-4222, an anti-tumor effect of a compound was evaluated using a mouse medulloblastoma allogeneic transplantation model. To be precise, Patched 1 gene mutant mouse (lineage name: Ptch1tm1Mps/J) was purchased from The Jackson Laboratory and p53 gene mutant mouse (lineage name: P53N4-M, Nomenclature: B6.129-Trp53tm/BrdN4) was purchased from Taconic, and a mouse of Patched 1(+/−), p53(−/−) phenotype was prepared by mating. […]
An anti-tumor test was performed using a tumor passaged by subcutaneous transplantation. […] The tumor diameter after transplantation was measured and, when the tumor size reached 150-250 mm^3, the anti-tumor test was started using 5 mice per group.
The test compound was prepared to achieve a dose of 1 mg/kg with a 0.5% methylcellulose (Shin-Etsu Chemical Co., Ltd., Cat. No. SM-100) suspension, and orally administered once a day for 2 weeks. The tumor size was calculated based on the longer diameter and shorter diameter of the tumor measured with an electron vernier caliper. After the start of the test, the tumor size was measured every 2 or 3 days and the growth rate of the tumor size was calculated. […]

For `CCc1nc2c(cc1NC(=O)c1ccccc1)c(OC(C)C)c(C(=O)NC1CCN(C(=O)CO)CC1)n2C` [Example 46, 6-ethyl-N-[1-(hydroxyacetyl)piperidin-4-yl]-1-methyl-3-(1-methylethoxy)-5-[(phenylcarbonyl)amino]-1H-pyrrolo[2,3-b]pyridine-2-carboxamide], the “T/C (%) (growth rate of the tumor size)” value was 51%.

What follows are compounds tested on Hedgehog signal transduction system (Smo) (assay: Gli reporter luciferase assay in NIH-3T3/Gli reporter cells stimulated with mouse Shh-N end fragment). Settings: NIH3T3; 1 μM compound; NIH-3T3/Gli reporter cells with mouse Shh-N end fragment culture supernatant, 48 hr; luciferase activity, control without compound as 100; read-out: inhibition rate (%) at 1 μM.
Format: cell-based
In short: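 NIH-3T3 cells stably carrying a luciferase reporter driven by 8× Gli-binding sites and chicken δ-crystalline promoter, plated at 1×10^4 cells/well and cultured overnight at 37° C in 10% FBS D-MEM. Compound added with recombinant mouse Shh-N fragment (aa 1–198, HEK293-expressed) to induce signaling; luciferase read-out.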

`CCc1nc2c(cc1NC(=O)c1ccccc1)c(OC(C)C)c(C(=O)NC1CCN(C(=O)CO)CC1)n2C` [Example 46, 6-ethyl-N-[1-(hydroxyacetyl)piperidin-4-yl]-1-methyl-3-(1-methylethoxy)-5-[(phenylcarbonyl)amino]-1H-pyrrolo[2,3-b]pyridine-2-carboxamide] and `CCc1nc2c(cc1NC(=O)c1ccccc1)c(OC(C)C)c(C(=O)N[C@H]1CC[C@@H](O)CC1)n2C` [Example 173, 6-ethyl-N-(cis-4-hydroxycyclohexyl)-1-methyl-3-(1-methylethoxy)-5-[(phenylcarbonyl)amino]-1H-pyrrolo[2,3-b]pyridine-2-carboxamide] are the same in inhibition at 1 µM: 98% for the first, 98% for the second.

First: CCc1cc2c(nc1NC(=O)c1ccc(F)cc1)c(OC(C)C)c(C(=O)NC1CCN(C(=O)CO)CC1)n2C [Example 167, 6-ethyl-5-{[(4-fluorophenyl)carbonyl]amino}-N-[1-(hydroxyacetyl)piperidin-4-yl]-1-methyl-3-(1-methylethoxy)-1H-pyrrolo[3,2-b]pyridine-2-carboxamide]
Second: CCc1cc2c(cc1NC(=O)c1ccc(F)cc1)c(OC(C)C)c(C(=O)NC1CCN(C(=O)CO)CC1)n2C [Example 168, 6-ethyl-5-{[(4-fluorophenyl)carbonyl]amino}-N-[1-(hydroxyacetyl)piperidin-4-yl]-1-methyl-3-(1-methylethoxy)-1H-indole-2-carboxamide]
The inhibition at 1 µM of the first is higher: 99% for the first, 97% for the second.

`CCc1cc2c(cc1NC(=O)c1ccc(Cl)cc1)c(OC(C)C)c(C(=O)NC1CCN(C(=O)CO)CC1)n2C` [Example 169, 5-{[(4-chlorophenyl)carbonyl]amino}-6-ethyl-N-[1-(hydroxyacetyl)piperidin-4-yl]-1-methyl-3-(1-methylethoxy)-1H-indole-2-carboxamide] showed an inhibition at 1 µM of 99%.
